± gives the standard deviation of the averaged measurements.
Key:
[1] = tested on: Homo sapiens (human subject panel, olfactory perception); assay: perceived odor pleasantness rating (rating 0-100); higher = more pleasant
Description: (§1)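 Human olfactory psychophysics. 55 healthy subjects (after excluding 6 low performers) sniffed 1 mL of each odorant diluted in paraffin oil (vials, two dilutions per molecule, 20 molecules presented twice). Each subject rated intensity, pleasantness and familiarity on a 0-100 slider, starting at 50 and required to move. Ratings were given only when the subject reported detecting a smell; per-subject ratings are averaged over subjects.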

[2] = tested on: Homo sapiens (human subject panel, olfactory perception); assay: perceived odor familiarity rating (rating 0-100); higher = more familiar
Description: as §1

[3] = tested on: Homo sapiens (human subject panel, olfactory perception); assay: perceived odor intensity rating (rating 0-100); higher = stronger perceived smell
Description: as §1

[4] = odor dilution in paraffin oil: 1/1,000
[5] = odor dilution in paraffin oil: 1/100,000
[6] = odor dilution in paraffin oil: 1/10
[7] = odor dilution in paraffin oil: 1/10,000,000

Structure (SMILES)	perceived odor pleasantness rating [1, 4]	perceived odor pleasantness rating [1, 5]	perceived odor familiarity rating [2, 4]	perceived odor familiarity rating [2, 5]	perceived odor intensity rating [3, 4]	perceived odor intensity rating [3, 5]	perceived odor pleasantness rating [1, 6]	perceived odor familiarity rating [2, 6]	perceived odor intensity rating [3, 6]	perceived odor pleasantness rating [1, 7]	perceived odor familiarity rating [2, 7]	perceived odor intensity rating [3, 7]
OCCCCCc1ccccc1 [5-Phenyl-1-pentanol]	53.6 ± 22	56.8 ± 23	49.2 ± 29	34.5 ± 32	53.4 ± 30	17.2 ± 22						
CC(=O)CC/C=C(\C)CCC=C(C)C [6,10-Dimethyl-5,9-undecadien-2-one]	41.8 ± 23	53 ± 21	43.6 ± 26	40.3 ± 30	42.1 ± 30	13 ± 12						
CC(=O)c1cc2c(cc1C)C(C)(C)C(C)CC2(C)C (centres undefined) [6-Acetyl-1,1,2,4,4,7-Hexamethyltetralin]	67.7 ± 21		49.1 ± 31		29.8 ± 28		67.4 ± 24	57.3 ± 30	51.7 ± 28			
CC(=O)CCC=C(C)C [6-Methyl-5-hepten-2-one]	48.6 ± 30	52.6 ± 23	51.9 ± 31	31.9 ± 29	70.7 ± 23	22.4 ± 25						
Cc1ccc2oc(=O)ccc2c1 [6-Methylcoumarin]	53.9 ± 28		55.2 ± 30		62.9 ± 27		40.8 ± 32	48.9 ± 32	80.1 ± 19			
CCCCCC(=O)CCCCC [6-Undecanone]	49.5 ± 27	52.7 ± 29	43.3 ± 31	32.9 ± 32	43.3 ± 30	8.22 ± 16						
Cc1ccc2ncccc2c1 [6-methyl quinoline]	36.7 ± 27	60.4 ± 23	44 ± 30	44.3 ± 31	68.2 ± 27	50.9 ± 30						
COc1ccc2ccc(=O)oc2c1 [7-Methoxycoumarin]	59.3 ± 25		47.2 ± 29		42.3 ± 24		62 ± 25	52 ± 30	62 ± 26			
CC1(C)C2CC=C(C=O)C1C2 [(1R)-(-)-Myrtenal]		40.3 ± 25		48.3 ± 31		62.4 ± 26				50.1 ± 24	40.7 ± 33	33.8 ± 31
CC1CC[C@H](C(C)C)[C@@H](O)C1 (some centres undefined) [( + )-menthol]	52 ± 24		51.8 ± 29		51 ± 31		55.3 ± 28	73.7 ± 26	83.4 ± 14			
C=C(C)[C@@H]1CC[C@@H](C)C[C@H]1O [(-)-Isopulegol]	45.1 ± 24		37.8 ± 32		24.4 ± 27		56.9 ± 27	73.2 ± 29	81.1 ± 17			
CC[C@H](C)O [(S)-( + )-2-butanol]	50.2 ± 22	50.7 ± 21	33.1 ± 30	40.9 ± 30	16.4 ± 22	24.7 ± 27						
CCOC(C)OCC [Acetal]	42.5 ± 24	47.9 ± 22	44.7 ± 28	35.2 ± 28	48.7 ± 34	43.1 ± 33						
COc1ccc(C(C)=O)cc1 [Acetanisole]	68.8 ± 19		50 ± 26		44.1 ± 28		53.3 ± 28	56.5 ± 30	82.2 ± 16			
COc1cc(C(C)=O)ccc1O [Acetovanillone]	55.1 ± 21		41 ± 30		35 ± 32		45.7 ± 25	47.6 ± 29	64 ± 28			
O=C(O)CCCCC(=O)O [Adipic acid]	38.5 ± 18		34 ± 29		14 ± 16		52.7 ± 24	43.5 ± 27	35.7 ± 28			
C=CCOC(=O)C(CC)CC [Allyl 2-ethylbutyrate]	51.5 ± 28	67 ± 19	51.6 ± 29	44.1 ± 30	68.5 ± 28	33.9 ± 28						

Structure (SMILES)	perceived odor pleasantness rating [1, 4]	perceived odor pleasantness rating [1, 5]	perceived odor familiarity rating [2, 4]	perceived odor familiarity rating [2, 5]	perceived odor intensity rating [3, 4]	perceived odor intensity rating [3, 5]	perceived odor pleasantness rating [1, 6]	perceived odor familiarity rating [2, 6]	perceived odor intensity rating [3, 6]	perceived odor pleasantness rating [1, 7]	perceived odor familiarity rating [2, 7]	perceived odor intensity rating [3, 7]
C=CCOC(=O)c1ccco1 [Allyl 2-furoate]	31.9 ± 23	41.8 ± 21	40.9 ± 29	39.9 ± 27	60.6 ± 29	27 ± 28						
C=CCSCC=C [Allyl Sulfide]		37.2 ± 25		40.8 ± 30		43.2 ± 35				42.7 ± 23	35.4 ± 25	27.3 ± 24
C=CCOC(=O)c1ccccc1N [Allyl anthranilate]	52 ± 27	50.7 ± 25	45.9 ± 29	33.4 ± 26	55.1 ± 31	16.4 ± 19						
C=CCOC(=O)CCC [Allyl butyrate]	23.7 ± 24	33.2 ± 24	45.2 ± 31	49.2 ± 28	78.6 ± 20	54.3 ± 31						
C=CCOC(=O)/C=C/c1ccccc1 [Allyl cinnamate]	52.4 ± 28	52.4 ± 24	40.5 ± 28	44 ± 27	57 ± 32	46.8 ± 30						
C=CCOC(=O)CCC1CCCCC1 [Allyl cyclohexanepropionate]	60.9 ± 23	54.7 ± 24	58.7 ± 29	32.5 ± 27	57.9 ± 25	30.6 ± 30						
C=CCOC(=O)CCCCCC [Allyl heptanoate]	73.7 ± 20	55.4 ± 23	57.9 ± 31	37.8 ± 29	53.9 ± 31	22.2 ± 26						
C=CCOC(=O)Cc1ccccc1 [Allyl phenylacetate]		33 ± 27		44 ± 25		33.8 ± 29				49.8 ± 28	29.4 ± 16	25.7 ± 25
C=CCOC(=O)/C(C)=C/C [Allyl tiglate]	41.1 ± 28	44.3 ± 23	49.6 ± 31	46.1 ± 32	71.9 ± 24	48 ± 29						
CC1(C)CCC[C@]2(C)[C@H]3CCO[C@]3(C)CC[C@@H]12 [Ambrox]	62.8 ± 23		60.9 ± 28		50.1 ± 30		55.7 ± 27	61 ± 27	73.6 ± 23			
CCCCCOC(=O)CCC [Amyl butyrate]	55.8 ± 28	47.7 ± 30	51.7 ± 32	32.9 ± 32	59.2 ± 26	20.8 ± 25						
CCCCCOC(=O)CCCCC [Amyl hexanoate]	53.8 ± 27		38.1 ± 30		28.8 ± 29		44.6 ± 28	39.1 ± 30	67.3 ± 25			
C[C@@]12C=CC[C@H]1[C@@H]1CCC3=CC(=O)CC[C@]3(C)[C@H]1CC2 [Androstadienone]	29.2 ± 24	38.6 ± 27	45.8 ± 34	31.6 ± 30	63.1 ± 32	38.2 ± 35						
COc1ccc(COC(C)=O)cc1 [Anisyl acetate]	69.8 ± 21	48.7 ± 25	52.8 ± 29	39.3 ± 30	59.4 ± 26	31.7 ± 26						
N[C@@H](CC(=O)O)C(=O)O [Aspartic Acid]	35 ± 23		40 ± 30		29.7 ± 30		32.1 ± 28	46.6 ± 32	63.6 ± 27			
COC(OC)c1ccccc1 [Benzaldehyde dimethyl acetal]	35 ± 24	49.9 ± 24	41.5 ± 31	38.7 ± 29	68.6 ± 24	29.2 ± 25						
CC1COC(c2ccccc2)O1 (centres undefined) [Benzaldehyde propylene glycol acetal]	45.5 ± 23	47.2 ± 22	36.3 ± 27	34.2 ± 22	50.5 ± 29	28.8 ± 32						

From the supplement of paper PMC4977894
